Data taken from patent US11584727B2, “2-thioxothiazolidin-4-one derivatives active as transthyretin ligands and uses thereof” (BSIM Therapeutics, S.A., priority 2014, dated 2023).

How the values were obtained:
[1] = target: T1, wild type transthyretin (WT-TTR) (Homo sapiens, UniProt P02766); experiment: WT-TTR amyloid fibril formation assay (turbidimetry, acid-induced); type: biochemical; settings: for Fibril Formation (%): WT-TTR 3.6 μM, 1:1 TTR-compound stoichiometry, 37° C., normalized to no-compound control (100%)
T1 construct: made in house; host or cells: E. coli BL21 (DE3), pET23a plasmid

[2] = target: Val122Ile transthyretin (V122I-TTR) (Homo sapiens, UniProt P02766, V142I); experiment: V122I-TTR amyloid fibril formation assay (turbidimetry, acid-induced); type: biochemical; settings: pH 4.4, 72 hours; for Fibril Formation (%): V122I-TTR 3.6 μM, 37° C.

Row | inhibition of fibril formation ([1]; 1:2 compound-protein stoichiometry (0.5×), TTR 3.6 μM) | Fibril Formation (%) ([1]; pH 4.4, 72 hours) | IC50 ([1]; WT-TTR fixed at 3.6 μM, ten compound concentrations, pH 4.4, 72 hours) | Fibril Formation (%) [2] | IC50 ([2]; V122I-TTR fixed at 3.6 μM, ten compound concentrations) | Compound | inhibitory activity against TTR amyloid fibril formation compared with reference compounds (in words) ([1]; TTR 3.6 μM, pH 4.4, 72 hours)
1 | above 70% | 28% | 1770 ± 240 nM | 52% | 3730 nM | COc1cc(/C=C2\SC(=S)N(CC(=O)O)C2=O)cc(Cl)c1O [AT50-A00 (Z), (Z)-3-hydroxycarbonylmethyl-5-(3′-chloro-4′-hydroxy-5′-methoxyphenylmethylidene)-2-thioxothiazolidin-4-one] | superior to that of reference compounds Tafamidis
2 |  | 43% |  | 49% |  | O=C(O)c1ccc2nc(-c3cc(Cl)cc(Cl)c3)oc2c1 [Tafamidis, reference compound] | 
